# Patent publication US20070049564A1 (Wyeth, priority 2005, published 2007)
# Read-outs that look alike come from different tables or passages of the source.
# Assays:
# E. coli GC 2231 = assay: MIC, broth microdilution; settings: Escherichia coli, GC2231, E. coli GC 2231
# E. coli GC 2235 = assay: MIC, broth microdilution; settings: Escherichia coli, GC2235, E. coli GC 2235
# E. coli GC 2233 = assay: MIC, broth microdilution; settings: Escherichia coli, GC2233, E. coli GC 2233
# E. coli GC 2270 = assay: MIC, broth microdilution; settings: Escherichia coli, GC2270, E. coli GC 2270
# E. coli GC 4560 = assay: MIC, broth microdilution; settings: Escherichia coli, GC4560, E. coli GC 4560
# E. coli GC 6465 = assay: MIC, broth microdilution; settings: Escherichia coli, GC6465, E. coli GC 6465
# E. coli GC 1073 = assay: MIC, broth microdilution; settings: Escherichia coli, GC1073, E. coli GC 1073
# Protocol: (§1) Antimicrobial susceptibility testing. The in vitro activities of the antibiotics are determined by the broth microdilution method as recommended by the National Committee for Clinical Laboratory Standards (NCCLS) (1). Mueller-Hinton II broth (MHBII)(BBL Cockeysville, Md.) is the medium employed in the testing procedures. Microtiter plates containing serial dilutions of each antimicrobial agent are inoculated with each organism to yield the appropriate density (10^5 CFU/ml) in a 100 μl final volume. The plates are incubated for 18-22 hours at 35° C. in ambient air.
# (§2) Representative compounds were first incubated in mouse serum for an hour prior to the in vitro testing against a panel of selected gram-positive and gram-negative bacteria strains. All compounds were also pre-incubated in water for an hour prior to testing as control. Representative compounds of Formula I were incubated in human serum prior to MIC determination.
# S. typhimurium GC 2172 = assay: MIC, broth microdilution; settings: Salmonella enterica, TYPHIMURIUM, S. typhimurium GC 2172
# Protocol: as §1
# (§3) Representative compounds were first incubated in mouse serum for an hour prior to the in vitro testing against a panel of selected gram-positive and gram-negative bacteria strains. All compounds were also pre-incubated in water for an hour prior to testing as control.
# S. aureus GC 6466 = assay: MIC, broth microdilution; settings: Staphylococcus aureus, GC6466, S. aureus GC 6466
# S. aureus GC 6467 = assay: MIC, broth microdilution; settings: Staphylococcus aureus, GC6467, S. aureus GC 6467
# S. aureus GC 1079 = assay: MIC, broth microdilution; settings: Staphylococcus aureus, GC1079, S. aureus GC 1079
# S. aureus GC 4536 = assay: MIC, broth microdilution; settings: Staphylococcus aureus, GC4536, S. aureus GC 4536
# Protocol: as §1, §2
# S. aureus GC 2216 = assay: MIC, broth microdilution; settings: Staphylococcus aureus, GC2216, S. aureus GC 2216
# S. aureus GC 6469 = assay: MIC, broth microdilution; settings: Staphylococcus aureus, GC6469, S. aureus GC 6469
# E. faecalis GC 2242 = assay: MIC, broth microdilution; settings: Enterococcus faecalis, GC2242, E. faecalis GC 2242
# E. faecium GC 4556 = assay: MIC, broth microdilution; settings: Enterococcus faecium, GC4556, E. faecium GC 4556
# E. faecium GC 2243 = assay: MIC, broth microdilution; settings: Enterococcus faecium, GC2243, E. faecium GC 2243
# Protocol: as §1, §3
# c. albicans GC 3066 = assay: MIC, broth microdilution
# E. coli = assay: Range of MIC for E. coli strains; settings: Escherichia coli
# Staph. = assay: Range of MIC for Staph. strains, including MRSA; settings: Staphylococcus aureus, MRSA
# [1] = c. albicans GC 3066, Water pre-incubation
# [2] = 20 h, read-out: Range of MIC, E. coli (Mouse Serum)
# [3] = read-out: Range of MIC, E. coli (mouse serum)
# [4] = read-out: Range of MIC, Staph (Mouse Serum)
# [5] = read-out: Range of MIC, Staph (Water)
# [6] = read-out: Range of MIC, Staph. (mouse serum)
# [7] = read-out: Range of MIC, Staph. (water)
smiles,measurement,setting,value
"CCCN(CC(=O)Nc1cc(N(C)C)c2c(c1O)C(=O)C1=C(O)[C@]3(O)C(=O)C(C(N)=O)=C(O)[C@@H](N(C)C)[C@@H]3C[C@@H]1C2)C(=O)OCOC(=O)C(C)C [Example 10, ({[(2-{[(5aR,6aS,7S,10aS)-9-(aminocarbonyl)-4,7-bis(dimethylamino)-1,8,10a,11-tetrahydroxy-10,12-dioxo-5,5a,6,6a,7,10,10a,12-octahydrotetracen-2-yl]amino}-2-oxoethyl)(propyl)amino]carbonyl}oxy)methyl 2-methylpropanoate]",MIC,E. coli GC 2231; Mouse Serum pre-incubation,2 µg/mL
same,MIC,E. coli GC 2231; Water pre-incubation,32 µg/mL
same,MIC,E. coli GC 2235; Mouse Serum pre-incubation,0.25 µg/mL
same,MIC,E. coli GC 2235; Water pre-incubation,4 µg/mL
same,MIC,E. coli GC 2233; Mouse Serum pre-incubation,0.5 µg/mL
same,MIC,E. coli GC 2233; Water pre-incubation,8 µg/mL
same,MIC,E. coli GC 2270; Mouse Serum pre-incubation,0.5 µg/mL
same,MIC,E. coli GC 2270; Water pre-incubation,8 µg/mL
same,MIC,E. coli GC 4560; Mouse Serum pre-incubation,0.12 µg/mL
same,MIC,E. coli GC 4560; Water pre-incubation,0.12 µg/mL
same,MIC,E. coli GC 6465; Mouse Serum pre-incubation,8 µg/mL
same,MIC,E. coli GC 6465; Water pre-incubation,> 64 µg/mL
same,MIC,E. coli GC 1073; Mouse Serum pre-incubation,0.5 µg/mL
same,MIC,E. coli GC 1073; Water pre-incubation,16 µg/mL
same,MIC,S. typhimurium GC 2172; Mouse Serum pre-incubation,4 µg/mL
same,MIC,S. typhimurium GC 2172; Water pre-incubation,> 64 µg/mL
same,MIC,S. aureus GC 6466; Mouse Serum pre-incubation,0.12 µg/mL
same,MIC,S. aureus GC 6466; Water pre-incubation,0.12 µg/mL
same,MIC,S. aureus GC 6467; Mouse Serum pre-incubation,2 µg/mL
same,MIC,S. aureus GC 6467; Water pre-incubation,2 µg/mL
same,MIC,S. aureus GC 1079; Mouse Serum pre-incubation,0.5 µg/mL
same,MIC,S. aureus GC 1079; Water pre-incubation,1 µg/mL
same,MIC,S. aureus GC 4536; Mouse Serum pre-incubation,0.25 µg/mL
same,MIC,S. aureus GC 4536; Water pre-incubation,0.5 µg/mL
same,MIC,S. aureus GC 2216; Mouse Serum pre-incubation,0.25 µg/mL
same,MIC,S. aureus GC 2216; Water pre-incubation,0.5 µg/mL
same,MIC,S. aureus GC 6469; Mouse Serum pre-incubation,1 µg/mL
same,MIC,S. aureus GC 6469; Water pre-incubation,2 µg/mL
same,MIC,E. faecalis GC 2242; Mouse Serum pre-incubation,0.25 µg/mL
same,MIC,E. faecalis GC 2242; Water pre-incubation,0.5 µg/mL
same,MIC,E. faecium GC 4556; Mouse Serum pre-incubation,0.25 µg/mL
same,MIC,E. faecium GC 4556; Water pre-incubation,0.5 µg/mL
same,MIC,E. faecium GC 2243; Mouse Serum pre-incubation,< 0.06 µg/mL
same,MIC,E. faecium GC 2243; Water pre-incubation,0.12 µg/mL
same,MIC,"c. albicans GC 3066; Candida albicans, GC3066",> 64 µg/mL
same,MIC,c. albicans GC 3066; [1],>64 UG/ML
same,MIC,E. coli; [2],0.25 to 2 µg/mL
same,MIC,"E. coli; read-out: Range of MIC, E. coli (Water)",4 to 32 µg/mL
same,MIC,E. coli; [3],0.25 to 2 µg/mL
same,MIC,"E. coli; read-out: Range of MIC, E. coli (water)",4 to 32 µg/mL
same,MIC,Staph.; [4],0.25 to 2 µg/mL
same,MIC,Staph.; [5],0.12 to 2 µg/mL
same,MIC,Staph.; [6],0.25 to 2 µg/mL
same,MIC,Staph.; [7],0.12 to 2 µg/mL
"CCCN(CC(=O)Nc1cc(N(C)C)c2c(c1O)C(=O)C1=C(O)[C@]3(O)C(=O)C(C(N)=O)=C(O)[C@@H](N(C)C)[C@@H]3C[C@@H]1C2)C(=O)OCOC(=O)Cc1ccccc1 [Example 11, ({[(2-{[(5aR,6aS,7S,10aS)-9-(aminocarbonyl)-4,7-bis(dimethylamino)-1,8,10a,11′-tetrahydroxy-10,12-dioxo-5,5a,6,6a,7,10,10a,12-octahydrotetracen-2-yl]amino}-2-oxoethyl)(propyl)amino]carbonyl}oxy)methyl phenylacetate]",MIC,E. coli GC 2231; Mouse Serum pre-incubation,2 µg/mL
same,MIC,E. coli GC 2231; Water pre-incubation,64 µg/mL
same,MIC,E. coli GC 2235; Mouse Serum pre-incubation,0.25 µg/mL
same,MIC,E. coli GC 2235; Water pre-incubation,4 µg/mL
same,MIC,E. coli GC 2233; Mouse Serum pre-incubation,0.25 µg/mL
same,MIC,E. coli GC 2233; Water pre-incubation,8 µg/mL
same,MIC,E. coli GC 2270; Mouse Serum pre-incubation,0.5 µg/mL
same,MIC,E. coli GC 2270; Water pre-incubation,8 µg/mL
same,MIC,E. coli GC 4560; Mouse Serum pre-incubation,0.12 µg/mL
same,MIC,E. coli GC 4560; Water pre-incubation,0.12 µg/mL
same,MIC,E. coli GC 6465; Mouse Serum pre-incubation,8 µg/mL
same,MIC,E. coli GC 6465; Water pre-incubation,> 64 µg/mL
same,MIC,E. coli GC 1073; Mouse Serum pre-incubation,0.5 µg/mL
same,MIC,E. coli GC 1073; Water pre-incubation,16 µg/mL
same,MIC,S. typhimurium GC 2172; Mouse Serum pre-incubation,4 µg/mL
same,MIC,S. typhimurium GC 2172; Water pre-incubation,> 64 µg/mL
same,MIC,S. aureus GC 6466; Mouse Serum pre-incubation,0.25 µg/mL
same,MIC,S. aureus GC 6466; Water pre-incubation,0.25 µg/mL
same,MIC,S. aureus GC 6467; Mouse Serum pre-incubation,4 µg/mL
same,MIC,S. aureus GC 6467; Water pre-incubation,4 µg/mL
same,MIC,S. aureus GC 1079; Mouse Serum pre-incubation,2 µg/mL
same,MIC,S. aureus GC 1079; Water pre-incubation,4 µg/mL
same,MIC,S. aureus GC 4536; Mouse Serum pre-incubation,0.5 µg/mL
same,MIC,S. aureus GC 4536; Water pre-incubation,0.5 µg/mL
same,MIC,S. aureus GC 2216; Mouse Serum pre-incubation,0.5 µg/mL
same,MIC,S. aureus GC 2216; Water pre-incubation,0.5 µg/mL
same,MIC,S. aureus GC 6469; Mouse Serum pre-incubation,4 µg/mL
same,MIC,S. aureus GC 6469; Water pre-incubation,4 µg/mL
same,MIC,E. faecalis GC 2242; Mouse Serum pre-incubation,0.25 µg/mL
same,MIC,E. faecalis GC 2242; Water pre-incubation,0.5 µg/mL
same,MIC,E. faecium GC 4556; Mouse Serum pre-incubation,0.25 µg/mL
same,MIC,E. faecium GC 4556; Water pre-incubation,0.5 µg/mL
same,MIC,E. faecium GC 2243; Mouse Serum pre-incubation,0.12 µg/mL
same,MIC,E. faecium GC 2243; Water pre-incubation,0.25 µg/mL
same,MIC,"c. albicans GC 3066; Candida albicans, GC3066",> 64 µg/mL
same,MIC,c. albicans GC 3066; [1],>64 UG/ML
same,MIC,E. coli; [2],0.25 to 2 µg/mL
same,MIC,E. coli; [3],0.25 to 2 µg/mL
same,MIC,Staph.; [4],0.25 to 4 µg/mL
same,MIC,Staph.; [5],0.25 to 4 µg/mL
same,MIC,Staph.; [6],0.25 to 4 µg/mL
same,MIC,Staph.; [7],0.25 to 4 µg/mL
